Assay results reported in patent US11034666B2, “Anti-inflammatory and antitumor 2-oxothiazoles and 2-oxothiophenes compounds” (Avexxin AS, priority 2013, dated 2021).

How the values were obtained:
[1] = tested on: PGE2; assay: Plasma PGE2 EIA, prophylactic CIA study; assay type: in vivo, male DBA/1 mice; conditions: prophylactic CIA study; Compound A 7.5 mg/kg, MTX 0.3 mg/kg; vehicle 223.4±107; mean ± SD
Protocol: PGE2 is recognized as an important contributor to the joint inflammation in rheumatoid arthritis,^60 and we investigated if plasma PGE2 levels were changed in response to treatment. […] There were no significant differences between the treatment groups (p>0.05).
(§1) PGE2 EIA analysis of blood plasma from the prophylactic and therapeutic CIA studies was performed according to kit protocol. Plasma samples were diluted 1:1000-1:6000 in EIA buffer and allowed to hybridize over-night (18 hrs, 4° C.). The plate was read using a Multiscan plate reader (Ascent Labsystems) (OD550 nm). The corresponding Ascent software for Multiscan, Version 2.4.1 was used to obtain the data. PGE2 levels for all treatments are shown relative to the DMSO-treated vehicle arthritic mice (n=10-11 mice in each category±SD).
(§2) For the prophylactic and the therapeutic studies, CIA was induced in male DBA/1 mice (except naïve mice) by immunization with 0.1 mL emulsion containing an equal volume of bovine type II collagen solution (2 mg/mL) and Freuds Complete Adjuvant at the tail base. The first injection was given on Day 0 and the second injection as booster was given on Day 21 (41-43). COMPOUND A, vehicle (DMSO) and MTX (0.3 mg/kg) were administered daily, Enbrel (25 mg/kg) was administrated twice a week. For the prophylactic study, treatment started one hour before the second collagen injection and continued for 21 days except for the histology groups that were sacrificed at Day 13 ([…]). For the therapeutic study, treatment started at Day 28 and continued for 14 days.

[2] = tested on: collagen-induced arthritis (CIA) mouse model; assay: Prophylactic collagen-induced arthritis (CIA) study; assay type: in vivo, male DBA/1 mice
Protocol: The prophylactic effect of Compound A on CIA model in male DBA/1 mice^57 following intraperitoneal (ip) administration, treatment starting 1 hour prior to the last immunization was studied. A study comparing naïve mice (healthy, non-CIA, non-treated), vehicle-treated mice (CIA with DMSO, ip) and CIA mice treated daily with Compound A (7.5 mg/kg, ip) or MTX (0.3 mg/kg, ip) was performed. CIA developed rapidly in mice immunized with CII. In the prophylactic study, a 100% incidence of CIA was observed by day 29 in CII-immunized mice, with maximum AI of 8.55 observed at 41 days post immunization. The AI and incidence of all groups increased in a time-dependent mode from day 25 to day 41.
Separate prophylactic and therapeutic efficacy studies of COMPOUND A were performed. Methotrexate (MTX) (Jiangsu Hengrui Medicine Co, #11041411), Enbrel (Boehringer Ingelheim Pharma KG, # F39487), and vehicle (DMSO 100%, Sigma Aldrich # D2650) were administered to all groups via intraperitoneal injection once daily at a dose volume of 2 mL/kg. Observations for morbidity, mortality, injury, and the availability of food and water were conducted twice daily for all animals. Clinical observations were conducted daily during the study. Body weights were measured and recorded prior to randomization and then once daily during the study. Food consumption was measured and recorded daily. Biopsies for mid-term histology analysis were obtained on Day 13 in the prophylactic study. Necropsy examinations were performed at study termination; plasma samples were collected, organ weights were recorded
as §2
CIA Assessment and Treatment. CIA was assessed in mice by two blinded observers to measure paw swelling with a capacity measurement method on Day 0, Day 20, Day 22, Day 25, Day 27, Day 29, Day 32, Day 34, Day 36, Day 39 and Day 41 after the first injection. The occurrence of arthritis was observed by scoring all paws for severity of erythema and swelling, using a clinical score ranging from 0 (no swelling) to 4 (severe swelling and erythema). The physical condition of the animals was observed daily. Scores and overall evaluation of the histology group arms were performed in the same way as the main groups. However, the values measured were not included in the mean value calculations of the main groups. The YLS-7B Foot Volume Measuring Instrument (Huaibei China Bio Equipment) was used to measure the foot volume of mice. The occurrence of arthritis was observed by scoring all paws for severity of erythema and swelling, using a clinical score ranging from 0 (no swelling) to 4 (severe swelling and erythema), i.e. yielding maximum arthritic index (AI) score 16 (46).
Measurement of the histopathology and clinical observations. At the end of the studies, one hind foot of each mouse was collected for histopathology. The foot including the ankle was fixed in 10% neutral formalin. The ankle joints were decalcified, dehydrated, embedded in paraffin, sectioned and stained with routine hematoxylin-eosin. The sections were studied using light microscopy (10×10 and 20×10 magnifications). Arthritis damage (histological damage score) was evaluated and scored by an investigator blinded for the treatment regimen. […]

[3] = tested on: MAS98.12 xenograft; conditions: FIG. 1; data from an earlier study in the same animal model [13]; cited from earlier work
[4] = tested on: rat streptozocin-induced model of human chronic renal disease; assay: Rat streptozocin-induced model of human chronic renal disease, urine protein; assay type: in vivo, Sprague Dawley rats; conditions: AVX235 10 mg/kg ip; losartan 30 mg/kg oral gavage daily; 2 weeks
Protocol: The therapeutic effect of AVX235 was tested in the rat streptozocin-induced model of human chronic renal disease and compared against losartan (positive control).
Sprague Dawley rats (Harlan laboratories, USA) of an average weight of 130-150 grams were divided in groups of 8 animals per group and were treated according to table 7:
AVX235 was injected intraperitoneally, once daily for the first 4 days and then every two days. Losartan was administered daily, by oral gavage. At 2 weeks post experiment initiation, urine was collected over a period of 24 h and total protein in mg was measured.

[5] = tested on: collagen-induced arthritis (CIA) mouse model; assay: Therapeutic collagen-induced arthritis (CIA) study; assay type: in vivo, male DBA/1 mice; conditions: Days 36 to 41; Compound A 30 mg/kg ip daily; Enbrel 25 mg/kg twice a week
Description: The therapeutic effect of Compound A on CIA model in male DBA/1 mice following ip administration, treatment starting 7 days after the last immunization was explored. CIA developed rapidly in mice immunized with CII, with maximum AI of 10.2 observed at 39 days post immunization. The AI and incidence of vehicle- and Compound A treated groups increased in a time-dependent mode from Days 29 to 41. […] Compound A and Enbrel performed equally well; there were no significant difference between these treatments groups.
Separate prophylactic and therapeutic efficacy studies of COMPOUND A were performed. […] Body weights were measured and recorded prior to randomization and then once daily during the study. Food consumption was measured and recorded daily. […] Necropsy examinations were performed at study termination; plasma samples were collected, organ weights were recorded […]
CIA Assessment and Treatment. CIA was assessed in mice by two blinded observers to measure paw swelling with a capacity measurement method on Day 0, Day 20, Day 22, Day 25, Day 27, Day 29, Day 32, Day 34, Day 36, Day 39 and Day 41 after the first injection. […] However, the values measured were not included in the mean value calculations of the main groups. […]

[6] = tested on: PGE2; assay: Plasma PGE2 EIA, therapeutic CIA study; assay type: in vivo, male DBA/1 mice; conditions: therapeutic CIA study; Compound A 30 mg/kg, Enbrel 25 mg/kg; vehicle 231.1±110; mean ± SD
Protocol: There were no significant differences between the treatment groups (p>0.05).
as §1, §2

[7] = hind paw, Compound A 7.5 mg/kg, MTX 0.3 mg/kg

CN(Cc1cnc2nc(N)nc(N)c2n1)c1ccc(C(=O)N[C@@H](CCC(=O)O)C(=O)O)cc1 [MTX, Methotrexate, reference compound]
plasma PGE2 level [1]: 107.3 ± 62 ng/mL
arthritic index (AI) in comparison to the CIA control group (in words) ([2]; Days 32 to 41, Compound A 7.5 mg/kg ip daily, MTX 0.3 mg/kg ip daily): significantly reduced
articular cavity and peripheral tissue inflammatory cell infiltration, histopathology vs vehicle (in words) [2, 7]: did not reduce
capillary and synovial hyperplasia, histopathology vs vehicle (in words) [2, 7]: did not reduce
cartilage damage, histopathology vs vehicle (in words) [2, 7]: did not reduce

Cn1c(=O)n(-c2ccc(C(C)(C)C#N)cc2)c2c3cc(-c4cnc5ccccc5c4)ccc3ncc21 [BEZ235]
tumor volume (in words) [3]: tumor volumes are reduced

CCCCc1nc(Cl)c(CO)n1Cc1ccc(-c2ccccc2-c2nn[nH]n2)cc1 [losartan]
therapeutic effect on STZ-induced urine protein (in words) [4]: protected rats from the STZ effect

Enbrel
arthritic index (AI) in comparison to the CIA control group (in words) [5]: significantly decreased
plasma PGE2 level [6]: 187.5 ± 74 ng/mL
